What was measured:
adenosine A2 receptor = target: T1, adenosine A2 receptor (Rattus norvegicus, UniProt P30543); experiment: Adenosine A2 Receptor Binding Test (3H-CGS 21680, rat corpus striatum)
T1 construct: Corpus striatum of a rat was suspended in ice-cooled 50 mM Tris; from tissue; host or cells: rat corpus striatum (washed membrane suspension)
Description: Adenosine Receptor Antagonistic Activity (Adenosine A2 Receptor Binding Test)
Corpus striatum of a rat was suspended in ice-cooled 50 mM Tris hydroxymethyl aminomethane hydrochloride (Tris HCl) buffer (pH 7.7) by using Polytron homogenizer (manufactured by Kinematicas Co.). The suspension was centrifuged (50,000×g, 10 minutes), and the precipitate was suspended again in the same amount of 50 mM Tris HCl buffer. The suspension was centrifuged under the same conditions, and the final precipitate was suspended once again in 50 mM Tris HCl buffer containing 10 mM magnesium chloride and 0.02 unit/mg tissue of adenosine deaminase (manufactured by Sigma Co.) to give a tissue concentration of 5 mg (wet weight)/ml.
To 1 ml of the tissue suspension thus prepared were added 50 μl of a mixture of N-ethylcarboxamidoadenosine labeled with tritium (^3 H-NECA: 26 Ci/mmol, manufactured by Amersham Co.) (final concentration: 3.8 nM) and cyclopentyladenosine (CPA, manufactured by Sigma Co.) (final concentration: 50 nM), and 50 μl of a test compound. The resulting mixture was allowed to stand at 25° C. for 120 minutes and then rapidly filtered by suction through a glass fiber filter (GF/C, manufactured by Whatman Co.). The filter was immediately washed three times with 5 ml each of ice-cooled 50 mM Tris HCl buffer, and transferred to a vial, and a scintillator (EX-H by Wako Pure Chemical Industries, Ltd.) was added thereto. The radioactivity on the filter was determined with a liquid scintillation counter (manufactured by Packard instrument Co.).
The similar procedure as above was repeated to determine the radioactivity bound to the A2 receptors using 50 μl of CGS 21680 labeled with tritium {^3 H-2-[p-(2-carboxyethyl)phenethylamino]-5'-(N-ethylcarboxamide)adenosine: 40 Ci/mmol, manufactured by New England Nuclear Co. [J. Pharmacol. Exp. Ther., 251, 888 (1989)]} (final concentration: 4.0 nM) in place of 50 μl of the mixture of N-ethylcarboxamidoadenosine labeled with tritium (^3 H-NECA: 26 Ci/mmol, manufactured by Amersham Co.) (final concentration: 3.8 nM) and cyclopentyladenosine (CPA, manufactured by Sigma Co.) (final concentration: 50 nM).
The inhibition rate of the test compound against the binding of A2 receptors (^3 H-CGS 21680 binding) was calculated by the following equation: [formula]
The Ki values shown in the table were calculated by the following equation: [formula]

[1] = tested on: Haloperidol-Induced Catalepsy; experiment: Effect on Haloperidol-Induced Catalepsy; format: in vivo, male ddY mice; settings: 10 mg/kg po
Description: Effect on Haloperidol-Induced Catalepsy Parkinson's disease is a clinical syndrome caused by degeneration of nigrostriatal dopaminergic neurons. […] The experiment was performed by using several groups of 5-weeks-old male ddY mice (weighing 22 to 24 g, Japan SLC), each group consisting of 5 mice. Haloperidol (Janssen Pharmaceutica) suspended in 0.3% CMC was intraperitoneally administered to each mouse at a dose of 1.0 mg/kg. Test compounds were suspended in injectable distilled water (Otsuka Pharmaceutical Co., Ltd.) containing Tween 80 [polyoxyethylene (20) sorbitan monooleate]. L-DOPA (Kyowa Hakko Kogyo Co., Ltd.) and benserazide hydrochloride (Kyowa Hakko Kogyo Co., Ltd.) were suspended in 0.3% CMC. One hour after the haloperidol administration, the test compound suspensions and the control suspension [injectable distilled water (Otsuka Pharmaceutical Co., Ltd.) containing Tween 80] containing no test compound were orally administered to separate groups of the mice (0.1 ml per 10 g of body weight). One hour after the administration of the test compound, the forelimbs of each mouse and subsequently the hindlimbs of the same mouse were placed on a 4.5 cm-high, 1.0 cm-wide bar and catalepsy was estimated. […] The catalepsy score and the standard of judgment are shown below. […] The effect of the compounds was evaluated by the total of the catalepsy scores of five mice in each group (25 points at the full).

[2] = tested on: Clonidine-Induced Aggressive Behavior; experiment: Effect on Clonidine-Induced Aggressive Behavior; format: in vivo, male ddY mice; settings: 10 mg/kg po, clonidine 20 mg/kg ip
Description: Effect on Clonidine-Induced Aggressive Behavior The effect of a test compound on the aggressive behavior induced by intraperitoneal administration of clonidine was investigated [Eur. J. Pharmacol., 29, 374 (1968)]. The experiment was performed by using several groups of male ddY mice (weighing 20 to 25 g, Japan SLC), each group consisting of two mice. The test compound was suspended in injectable distilled water (Otsuka Pharmaceutical Co., Ltd.) containing Tween 80. Clonidine hydrochloride (Sigma Co.) was dissolved in physiological saline solution (Otsuka Pharmaceutical Co., Ltd.). The test compound suspension and the control suspension [injectable distilled water (Otsuka Pharmaceutical Co., Ltd.) containing Tween 80] were orally administered to separate groups of the mice (0.1 ml per 10 g of body weight). Sixty minutes after the oral administration of the test compound, clonidine hydrochloride (20 mg/kg) was intraperitoneally injected. The number of biting attacks during 30 minutes after clonidine treatment was counted. The effect of the compound was evaluated by comparing the average number of biting attacks of the test compound-administered groups with that of control groups (Student's t-test).

[3] = read-out: A2 Receptor Inhibition Rate

T1 sequence (P30543 whole entry): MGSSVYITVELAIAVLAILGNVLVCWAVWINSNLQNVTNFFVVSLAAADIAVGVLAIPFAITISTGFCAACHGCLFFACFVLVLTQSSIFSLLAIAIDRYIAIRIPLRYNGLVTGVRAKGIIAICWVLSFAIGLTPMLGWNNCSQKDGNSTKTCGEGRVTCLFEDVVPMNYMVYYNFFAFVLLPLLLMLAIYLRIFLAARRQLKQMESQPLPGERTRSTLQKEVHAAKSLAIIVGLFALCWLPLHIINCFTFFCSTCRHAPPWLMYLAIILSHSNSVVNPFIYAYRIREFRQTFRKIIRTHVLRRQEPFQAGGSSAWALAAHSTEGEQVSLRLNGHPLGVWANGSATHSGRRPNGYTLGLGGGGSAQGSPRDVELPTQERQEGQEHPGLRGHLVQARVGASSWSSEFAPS

Structure (SMILES): CCn1c(=O)c2c(nc(/C=C/c3cccc(C(C)=O)c3)n2C)n(CC)c1=O [Compound 24, (E)-8-(3-Acetylstyryl)-1,3-diethyl-7-methylxanthine]
- Ki (adenosine A2 receptor; [3H]CGS 21680 (inhibition rates of the same line marked *)): 13 nM
- inhibition at 0.1 µM (adenosine A2 receptor; [3]): 85%
- inhibition at 1 µM (adenosine A2 receptor; [3]): 99%
- Total Score (catalepsy) ([1]; sum of five mice, 25 points at the full, control 25): 7
- inhibition in vivo at 10 mg/kg ([1]; Mus musculus, decrease in total score based on control group, read-out: Remission Rate): 72%
- Number of the Attacks of Test Compound-Treated Group/Number of the Attacks of Control Group [2]: 5.3
- Number of the Biting Attacks (mean ± S.E.M.), Test Compound-Treated Group ([2]; 30 minutes, control 6.3 ± 2.09, p < 0.05): 33.1 ± 7.16

— patent publication US5670498A, “8-substituted styryl xanthine derivatives” (Kyowa Hakko Kogyo Co., Ltd., priority 1992, dated 1997)
